Laboratory results: ChEMBL document CHEMBL1147757, “Design and preparation of 2-benzamido-pyrimidines as inhibitors of IKK” (Bioorg Med Chem Lett, 2006)

Key:
[1] = target: T1, Inhibitor of NF-kappa-B kinase (IKK) (Homo sapiens, UniProt O14920+O15111+Q9Y6K9); test: Inhibitory activity against IKK complex isolated from HeLa cells; type: cell-based
[2] = target: T2, Inhibitor of nuclear factor kappa-B kinase subunit alpha (Homo sapiens, UniProt O15111); test: Inhibitory activity against IKK1
T2 sequence (O15111 whole entry): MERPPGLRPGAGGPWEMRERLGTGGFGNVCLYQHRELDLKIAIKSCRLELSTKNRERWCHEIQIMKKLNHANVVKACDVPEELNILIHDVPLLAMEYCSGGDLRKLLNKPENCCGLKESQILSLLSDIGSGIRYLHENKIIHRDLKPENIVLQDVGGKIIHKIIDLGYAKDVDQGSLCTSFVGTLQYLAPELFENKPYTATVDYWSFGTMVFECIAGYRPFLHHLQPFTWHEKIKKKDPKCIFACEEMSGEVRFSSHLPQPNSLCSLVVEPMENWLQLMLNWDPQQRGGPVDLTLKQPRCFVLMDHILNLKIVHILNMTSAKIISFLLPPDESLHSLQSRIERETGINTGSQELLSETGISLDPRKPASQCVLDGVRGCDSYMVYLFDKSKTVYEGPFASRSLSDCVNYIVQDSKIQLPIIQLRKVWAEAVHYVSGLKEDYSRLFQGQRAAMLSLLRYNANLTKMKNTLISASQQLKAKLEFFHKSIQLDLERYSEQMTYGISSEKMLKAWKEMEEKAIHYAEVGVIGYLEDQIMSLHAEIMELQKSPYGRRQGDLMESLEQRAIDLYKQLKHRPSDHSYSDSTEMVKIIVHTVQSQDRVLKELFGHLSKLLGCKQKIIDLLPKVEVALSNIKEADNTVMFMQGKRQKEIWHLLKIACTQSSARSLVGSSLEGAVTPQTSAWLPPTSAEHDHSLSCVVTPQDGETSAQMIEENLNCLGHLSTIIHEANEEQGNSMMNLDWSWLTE

[3] = target: T3, Inhibitor of nuclear factor kappa-B kinase subunit beta (Homo sapiens, UniProt O14920); test: Inhibitory activity against IKK2
T3 sequence (O14920 whole entry): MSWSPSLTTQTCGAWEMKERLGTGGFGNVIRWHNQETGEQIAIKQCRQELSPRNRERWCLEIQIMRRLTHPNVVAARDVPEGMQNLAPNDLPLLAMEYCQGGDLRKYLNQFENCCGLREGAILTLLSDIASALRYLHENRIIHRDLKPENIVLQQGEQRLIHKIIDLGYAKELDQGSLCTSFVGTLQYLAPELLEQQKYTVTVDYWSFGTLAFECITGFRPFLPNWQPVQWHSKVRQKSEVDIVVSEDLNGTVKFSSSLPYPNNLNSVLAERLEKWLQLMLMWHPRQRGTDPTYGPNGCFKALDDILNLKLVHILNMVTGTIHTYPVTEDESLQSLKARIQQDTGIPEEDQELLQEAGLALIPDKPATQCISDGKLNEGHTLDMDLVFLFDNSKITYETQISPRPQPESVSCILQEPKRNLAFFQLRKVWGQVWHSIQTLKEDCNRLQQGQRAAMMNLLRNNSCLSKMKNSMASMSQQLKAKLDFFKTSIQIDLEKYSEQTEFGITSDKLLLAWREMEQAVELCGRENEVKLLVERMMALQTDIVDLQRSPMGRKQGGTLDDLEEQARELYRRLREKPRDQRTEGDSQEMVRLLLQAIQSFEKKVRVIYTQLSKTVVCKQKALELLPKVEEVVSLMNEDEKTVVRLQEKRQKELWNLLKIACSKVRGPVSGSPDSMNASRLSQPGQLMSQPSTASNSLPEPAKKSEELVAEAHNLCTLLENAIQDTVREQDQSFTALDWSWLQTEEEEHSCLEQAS

[4] = tested on: Mus musculus; test: Inhibition of thioglycollate-induced polymorphonuclear neutrophil release in mouse peritoneum at 10 mg/kg, sc; type: functional; settings: route subcutaneous
[5] = target: T1, Inhibitor of NF-kappa-B kinase (IKK); test: Inhibition of LPS-induced TNFalpha release from human PBMC; type: functional
[6] = Inhibition of IFN-gamma-stimulated expression of HLA-DR; type: functional
[7] = target: T1, Inhibitor of NF-kappa-B kinase (IKK); test: Inhibition of TNF-alpha-stimulated expression of E-selectin in HUVEC cells; type: functional, cell-based
[8] = tested on: Rattus norvegicus; test: Inhibition of LPS-induced TNFalpha release into plasma in rat at 30 mg/kg, po; type: functional
[9] = target: T1, Inhibitor of NF-kappa-B kinase (IKK); test: Inhibition of TNF-alpha-stimulated expression of VCAM1 in HUVEC cells; type: functional, cell-based
[10] = tested on: Rattus norvegicus; test: Inhibition of LPS-induced TNFalpha release into plasma in rat at 30 mg/kg, sc; type: functional; settings: route subcutaneous
[11] = Inhibition of IFN-gamma-stimulated expression of beta-2 microglobulin; type: functional
[12] = target: T1, Inhibitor of NF-kappa-B kinase (IKK); test: Inhibition of TNF-alpha-stimulated IkappaBalpha degradation; type: functional
[13] = target: T1, Inhibitor of NF-kappa-B kinase (IKK); test: Inhibition of TNF-alpha-stimulated expression of ICAM1 in HUVEC cells; type: functional, cell-based

T1 sequence (Q9Y6K9 whole entry, one chain of several): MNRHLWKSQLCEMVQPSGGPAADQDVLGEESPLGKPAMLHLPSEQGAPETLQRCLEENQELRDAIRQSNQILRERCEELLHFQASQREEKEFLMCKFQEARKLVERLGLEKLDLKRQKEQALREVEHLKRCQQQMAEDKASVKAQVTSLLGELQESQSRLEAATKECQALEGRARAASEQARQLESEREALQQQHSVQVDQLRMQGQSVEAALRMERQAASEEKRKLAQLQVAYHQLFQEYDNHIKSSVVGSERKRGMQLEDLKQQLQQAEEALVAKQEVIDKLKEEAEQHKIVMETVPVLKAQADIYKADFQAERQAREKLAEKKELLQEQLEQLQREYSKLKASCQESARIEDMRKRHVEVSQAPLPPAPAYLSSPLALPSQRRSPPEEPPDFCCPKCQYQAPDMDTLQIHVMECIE

Compound	IC50 [1] [nM]	IC50 [2] [nM]	IC50 [3] [nM]	inhibition in vivo at 10 mg/kg [4] [%]	IC50 [5] [nM]	IC50 [6] [nM]	IC50 [7] [nM]	inhibition in vivo at 30 mg/kg [8] [%]	IC50 [9] [nM]	inhibition in vivo at 30 mg/kg [10] [%]	IC50 [11] [nM]	IC50 [12] [nM]	IC50 [13] [nM]
CC(C)(N)CCc1ccc(-c2ccnc(Nc3ccc(C(=O)N4CCC(N5CCCC5)CC4)cc3)n2)s1	40	30	40	–	–	–	–	–	–	–	–	–	–
O=C(c1ccc(Nc2nccc(-c3cc4ccccc4s3)n2)cc1Cl)N1CCC(N2CCCC2)CC1	250	400	90	–	–	–	–	–	–	–	–	–	–
O=C(c1ccc(Nc2nccc(-c3cc4ccccc4s3)n2)cc1)N1CCC(N2CCCC2)CC1	70	200	40	50	300	2000	500	75	300	86	2000	1000	300
O=C(c1ccc(Nc2nccc(-c3ccc(CCCCO)s3)n2)cc1)N1CCC(N2CCCC2)CC1	40	500	25	–	–	2500	200	–	200	–	5000	2000	200
O=C(O)c1cccc(Nc2nccc(-c3cc4ccccc4s3)n2)c1	–	–	1000	–	–	–	–	–	–	–	–	–	–
CN(C)C1CCN(C(=O)c2ccc(Nc3nccc(-c4cc5ccccc5s4)n3)cc2)CC1	80	150	40	–	–	2000	300	–	400	–	2000	2000	400
COCCCc1ccc(-c2ccnc(Nc3ccc(C(=O)N4CCC(N5CCCC5)CC4)cc3)n2)s1	100	1000	100	–	–	2000	400	–	500	–	5000	1000	600
CN(C)CCNC(=O)c1ccc(Nc2nccc(-c3cc4ccccc4s3)n2)cc1	300	1200	200	–	–	–	500	–	500	–	2000	5000	500
O=C(O)Cc1ccc(Nc2nccc(-c3cc4ccccc4s3)n2)cc1	–	–	2200	–	–	–	–	–	–	–	–	–	–
CC(C)CCNC(=O)c1ccc(Nc2nccc(-c3cc4ccccc4s3)n2)cc1	–	–	> 100000	–	–	–	–	–	–	–	–	–	–
O=C(O)c1ccc(Nc2nccc(-c3cc4ccccc4s3)n2)cc1	18000	5000	600	–	–	100000	50000	–	50000	–	100000	100000	50000
NCCNC(=O)c1ccc(Nc2nccc(-c3cc4ccccc4s3)n2)cc1	4400	3700	600	–	–	–	–	–	–	–	–	–	–
CC(C)(O)CCc1ccc(-c2ccnc(Nc3ccc(C(=O)N4CCC(N5CCCC5)CC4)cc3)n2)s1	50	700	50	–	–	3000	450	–	600	–	5000	2000	500
O=C(NCCN1CCCC1)c1ccc(Nc2nccc(-c3cc4ccccc4s3)n2)cc1	500	1200	400	–	–	–	–	–	–	–	–	–	–
CC(=O)NC(C)(C)CCc1ccc(-c2ccnc(Nc3ccc(C(=O)N4CCC(N5CCCC5)CC4)cc3)n2)s1	800	30000	150	–	–	–	–	–	–	–	–	–	–
O=C(O)c1ccccc1Nc1nccc(-c2cc3ccccc3s2)n1	> 100000	> 100000	> 100000	–	–	–	–	–	–	–	–	–	–
COc1cc(Nc2nccc(-c3cc4ccccc4s3)n2)ccc1C(=O)N1CCC(N2CCCC2)CC1	150	100	50	–	–	–	–	–	–	–	–	–	–
CC(C)(N)C#Cc1ccc(-c2ccnc(Nc3ccc(C(=O)N4CCC(N5CCCC5)CC4)cc3)n2)s1	200	500	150	–	–	–	–	–	–	–	–	–	–
O=C(c1ccc(Nc2nccc(-c3cc4ccccc4s3)n2)cc1)N1CCCC1	8500	3800	900	–	–	250	2000	–	2000	–	10000	20000	2000
CCC(N)(CC)CCc1ccc(-c2ccnc(Nc3ccc(C(=O)N4CCC(N5CCCC5)CC4)cc3)n2)s1	30	30	60	–	–	–	–	–	–	–	–	–	–
